One substance from patent US20100068747A1, “Generic Assay for Monitoring Endocytosis” (Evotec Technologies GmbH, priority 2005, published 2010) can be followed below.

Entries after “also recorded” stand apart in the source; their conditions may differ.

Assay [1] concerns CHO/PAR-2 cells. In words: Lectin labeling of fixed cells, CHO/PAR-2. It counts as cell-based. Particulars: TRITC-lectin 10 nM and 20 nM. As for the experimental part: Lectin labeling of fixed cells was conducted as follows: To detach confluent cells in order to prepare experiments for internalization studies, cells were always treated with EDTA solution instead of trypsin solution. For all seeding, washing, and labeling steps in 96-well plates a working volume of 100 μl per well was assessed. Cells were seeded out into a 96-well plate at different concentrations. U2OS/ETAR-GFP suspensions were adjusted to yield 2*10^4 cells/well, both of the CHO cell lines must be at 2.5*10^4 cells/well. Cells became confluent after 24 hours of incubation. In the following, they were washed with phosphate buffered saline (PBS) and fixed with 3% PFA for 20 minutes at RT. Then, cells were washed again with PBS and incubated in 10 nM and 20 nM solutions of each TRITC-lectin candidate in PBS, respectively. Again, cells were washed with PBS to remove excess lectin, and wells were refilled with PBS for analysis. For specificity controls, lectin solutions were incubated for 30 minutes prior to the application with an excess of the monosaccharide that represents the respective glyco-epitope.
(§1) The following microscopy and image analysis techniques were employed. When utilizing the epifluorescence microscope magnifications were adjusted according to the purpose of observation, e.g. single cell vs. cell collective. Concerning the filters U-MNU was used for Hoechst, U-MSWB for GFP, and U-N41007 for TRITC detection. Hoechst images were taken at 50 ms exposure time, GFP images at 100 to 200 ms and TRITC images needed 500 to 1000 ms. Overlay images were assembled with AnalySIS and tuned in color intensity to obtain the desired color contrast. Images taken to compare two experimental conditions, e.g. control vs. stimulus, featured identical exposure parameters. If possible, well areas were chosen that reflect similar states of confluence. Utilizing the Opera confocal fluorescence imager, the instrument was calibrated running standard methods for skew cropping (spatial camera alignments) and camera intensity normalization.

Assay [2] concerns U2OS/ETAR-GFP cells. The assay can be described thus: Lectin labeling of live cells, U2OS/ETAR-GFP. Particulars: TRITC-lectin, 10 nM at maximum. The assay is classed as cell-based, human. On the procedure: (§2) Lectin labeling of live cells was conducted as follows: Cells were seeded as described above. After 24 hours cells were washed once with PBS and incubated in the incubator for another 2 hours in the respective standard medium without serum supplement to deprive them of serum factor mediated stimuli. This step was termed starvation period. Subsequently, cells were washed gently with PBS and incubated with 37° C. tempered assay medium comprised of Hank's Balanced Salt Solution (HBSS) pH 7.4, containing 20 mM HEPES and 30 mM D-glucose. The plate was left at RT for 30 minutes to slowly level its temperature and, thus, avoid capturing of temperature drop induced membrane dynamics. This period was termed leveling period. Then, assay medium was withdrawn and wells refilled with TRITC-lectin solutions at RT to start cell labeling. Several lectin concentrations in the low nano-molar range were tested. Molar concentrations were calculated from the data provided by Vector Labs. The plate was placed on a rotating shaker at low revolutions for 10 minutes while incubating. The start of the lectin incubation is referred to as assay starting point with t=0 min. After the 10 min incubation period the cells were gently washed with PBS and wells refilled with assay buffer at RT. Instantly thereafter, fluorescence signals were monitored predominately using the epifluorescence microscope.
as §1

For assay [3], the system named is CHO/PAR-2 cells. In words: Lectin labeling of live cells, CHO/PAR-2. The note with it: TRITC-lectin, 10 nM at maximum. It counts as cell-based. On the procedure:
as §2, §1

For assay [4], the system named is CHO/PAR-2 cell membrane protein. The assay can be described thus: Lectin blotting of PAR-2 membrane sample. The assay is classed as binding. As for the experimental part:
Membrane preparation was conducted as follows: Cells were cultured in five T175 flasks until confluency. Confluent cells were detached by applying 3 ml of EDTA solution onto the PBS washed cells. Following a 20-minute incubation at 37° C. and 5% CO2, cells were resuspended in 12 ml of starvation medium (standard medium without FCS), counted, and centrifuged in a Heraeus Megafuge 1.0R at 133 rcf for 4 minutes. All subsequent steps were carried out on ice and with ice cold solutions. After unification of all pellet fractions, hypotonic lysis buffer was added to the cells at a ratio of 1 ml per 5*10^7 cells. Additionally, protease inhibitor cocktail was added to 50 μl per 5*10^7 cells. Cells were homogenized with 30 strokes in a 5 ml potter on ice, centrifuged at 4° C. and 917 rcf for 10 minutes, and the supernatant was stored in an ultracentrifuge tube on ice. The pellet fraction was homogenized and centrifuged once again as described above. The supernatants of both procedures were unified and centrifuged at 4° C. and 100,000 rcf for 45 minutes in a Sorvall ultra-centrifuge. The supernatant of this centrifugation procedure was withdrawn and the pellet dissolved in 0.5 ml or 1.0 ml modified SDS PAGE loading buffer containing Tris-HCl, SDS, glycerol, but no β-mercapto-ethanol or dyes and stored in small aliquots of 50 μl at −20° C.
SDS-Page of membrane samples was conducted as follows: Discontinuous 12% polyacrylamide gels were prepared according to a standard protocol. Broad range marker and 25 μg membrane protein were mixed 1:1 with loading buffer and loaded five times onto a mini gel in alternating order. The gels were run at U=100 V for the first 20 minutes. Subsequently, voltage was increased to U=150 V. The run was aborted as soon as the pyronin G band reached the end of the gel. For coomassie staining, gels were put in coomassie staining solution on a shaker at low revolutions for 45 min. The staining solution was removed and the gel incubated with destaining solution for one to two hours, exchanging the solution several times until the desired contrast was obtained.
Blotting of membrane samples was conducted as follows: For blotting, 3 mm packs of Whatman papers were extensively soaked in one of the diverging blotting buffers, AB I, AB II, and CB, and a pile was assembled in a semi-dry Trans-Blot 3D system from Bio-Rad as depicted in the sketch of FIG. 2. Hybond nitrocellulose membrane was submerged in AB II prior to assembly. To smooth out any air bubbles from the pile, a Pasteur pipette was rolled several times over the top layer. The apparatus was closed and ran at U=25 V for 45 minutes. Then, the pile was disassembled, the membrane submerged in Ponceau S solution and gently swayed for 2 minutes. For destaining, ddH2O was substituted for the staining solution, and the membrane was briefly rinsed twice. After drying under ambient conditions, the marker bands were marked with a ballpoint-pen. The membrane was cut into slices each displaying one marker and one sample lane.
Probing of membrane samples was conducted as follows: For classical western blotting, membranes were blocked in PBS containing 5% low fat dried milk powder. They were placed on a rotating shaker at low revolutions for 1 hour. Subsequently, membranes were sealed in plastic bags with blocking solution additionally containing 1 μg/ml anti-PAR-2 antibody (1:400) or 0.5 μg/ml of anti-ETAR antibody (1:500), depending on the respective recombinant cell type used for the sample. […]

Assay [5] deals with U2OS/ETAR-GFP cells. The assay can be described thus: Lectin labeling of live cells, U2OS/ETAR-GFP. It counts as cell-based, human.

On to “succinylated Triticum vulgaris (wheat germ) agglutin [sWGA]”, for which the “Staining of CHO/PAR-2” value in the assay on CHO/PAR-2 cells [1] is “signals clearly marking individual cells; also recorded: cell surface”. For the same substance, the “Live cell staining of U2OS/ETAR-GFP” value in the assay on U2OS/ETAR-GFP cells [2] is reported as “spot formation”. Moreover, the “Live cell staining of CHO/PAR-2” value in the assay with CHO/PAR-2 cells [3] is “spot formation”. Moreover, the “striking bands below 35 kDa” value in assay [4] (PAR-2 sample) is “at least nine”. In assay [4] (biotinylated lectin 5 μg/ml), the “band at the same height as the western band (55 kDa, anti-PAR-2)” value is reported as “one at the same height as the western band; also recorded: intense band”. For the same substance, the “bands detected above 35 kDa” value in assay [4] (biotinylated lectin 5 μg/ml, exposure one to five minutes) is on record as “two”. The “delay in spot formation” value in the assay on U2OS/ETAR-GFP cells [5] (pH 6.8, U2OS cells) came to 20 min. Moreover, the “spot formation at increased pH” value in the assay on U2OS/ETAR-GFP cells [5] (pH 8.0, U2OS cells) is “accelerated”.
